Data from patent US4547507A, “Benzothiopyranopyridinones” (Roussel Uclaf, priority 1982, dated 1985).
pIC50: −log10 of the molar value. Where a name gives a salt, the structure may show the parent alone.

Key:
[1] = molecular target: rat striatal dopamine receptor (Rattus norvegicus, UniProt P61169); assay: Test A: [3H]Spiroperidol displacement from rat striatal dopamine receptor binding sites; settings: rat striatal membranes, [3H]spiroperidol 0.19 nM, 37° C., 10 minutes, pH 7.6; read-out: Test A receptor DA IC50
Experimental: Test A--[^3 H Spiroperidol displacement from rat striatal dopamine receptor binding sites
(a) Radioligand--[phenyl-4-(n)-^3 H]Spiroperido (Amersham International, TRK 570, 21 Ci/mmol was used as a 1 μCi/1 μl solution in ethanol and this solution was diluted to 250 μCi in 1 ml of ethanol to produce a stock solution. This stock solution was diluted 3.2/10,000 in assay buffer and 0.1 ml volumes of this were added to 2 ml binding assays =0.19 nM [^3 H]spiroperidol and =[…]
(b) Assay buffer--The assay buffer was a modified 50 mM Tris HCl buffer with a pH of 7.6 containing the following additions: NaCl-120 mM, KCl-5 mM, MgCl2 -1 mM, CaCl2 -2 mM, Pargyline-10 μM and 1-Ascorbic Acid-0.1%
(c) Membrane preparation--The striata were dissected from male CFHB rats and homogenized in 20 volumes of ice cold 0.32M sucrose with a Teflon/glass homogenizer and the homogenate was centrifuged at 1000 g for 10 minutes. The resulting supernatant was recentrifuged at 30,000 g for 30 minutes and the supernatant was discarded and the pellet was resuspended by homogenization in 30 volumes of ice cold assay buffer.
(d) Non-specific binding--Non-specific binding was accounted for by the inclusion of 1 μM(+)butaclamol in blank binding assays which required a stock solution of 20 μM in distilled water.
(e) Displacing compounds--Solutions were prepared at 20x final assay concentration in distilled water.
(f) Binding assay protocol--1.3 ml assay buffer, 0.5 ml membrane suspension, 0.1 ml distilled H2 O or drug solution and 0.1 ml [^3 H]spiroperidol dilution Binding assays were made up in ice with the [^3 H]spiroperidol being added last and incubated at 37° C. for 10 minutes. The bound ligand was separated by filtration through Whatman GF/C filters under vacuum followed by 2×10 ml rinses of ice cold assay buffer. The filters were dried at 80° C. and counted in 5 ml volumes of ECONOFLUOR (NEN) scintillation cocktail. All binding assays, controls, blanks and each of four displacer concentration were run in triplicate. IC50 values (Test A) were obtained graphically from log dose versus percent inhibition of specific binding plots.

rat cortical α1 receptor = assay: Test B: [3H]Prazosin displacement from rat cortical α1 receptor binding sites; settings: rat cerebral cortex membranes, [3H]prazosin 0.1 nM, 25° C., 30 minutes, pH 7.5
Experimental: Test B--[^3 H]Pyrazosin displacement from rat cortical α1 receptor binding sites (a) Radioligand--[^3 H]Prazosin (Amersham International, TRK 647, 28 Ci/mmole) was used as a 1 μCi/1 μl solution and this stock solution was diluted 1/18,000 in assay buffer and 0.1 ml volumes of this were added to 2 ml binding assay. =0.1 nM [^3 H]Prazosin and =0.0056 μCi/binding assay (b) Membrane preparation--The cerebral cortices were dissected from male CFHB rats and homogenized in 20 volumes of ice cold 0.32M sucrose using a Teflon/glass homogenizer and the homogenate was centrifuged at 1000 g for 10 minutes. The resulting pellet was discarded and the supernatant was recentrifuged at 30,000 g for 30 minutes. The supernatant was discarded and the pellet was resuspended by homogenization in 50 volumes of 50 mM pH 7.5 Tris HCl buffer (assay buffer). (c) Non-specific binding--Non-specific binding was accounted for by the inclusion of 100 μM 1-noradrenaline in blank binding assays which required a stock solution of 2 mM 1-noradrenaline made up fresh daily in 0.1% 1-ascorbic acid. (d) Displacing compounds--Solutions were prepared at 20x final assay concentration in distilled water. (e) Binding assay protocol--1.3 ml assay buffer, 0.5 ml membrane suspension, 0.1 ml distilled H2 O or drug solution and 0.1 ml [^3 H]pyrazosin dilution Binding assays were made up in ice with the [^3 H]pyrazosin being added last and incubated at 25° C. for 30 minutes. The bound ligand was separated by filtration through Whatman GF/C glass fibre filters under vacuum followed by 2×10 ml rinses of ice cold assay buffer. The filters were dried at 80° C. and counted in 5 ml volumes of ECONOFLUOR (NEN) scintillation cocktail. All binding assays, controls, blanks and each of four displacer concentrations were run in triplicate. IC50 values (Test B) were obtained graphically from log dose versus percent inhibition of specific binding plots.

rat cortical α2 receptor = assay: Test C: [3H]Dihydroergocryptine displacement from rat cortical α2 receptor binding sites; settings: for pIC50: rat cortical membranes, [3H]dihydroergocryptine 0.45 nM, 25° C., 45 minutes in the dark, approximately 80% of binding is α2
Experimental: Test C--[^3 H]Dihydroergocryptine displacement from rat cortical α2 *receptor binding sites
(a) Radioligand--[9,10(n)-^3 H]9,10-Dihydroergocryptine (Amersham International, TRK 555, 17.5 Ci/mmole) was used as a 1 μCi/1 μl solution and this stock solution was diluted 1/6250 in assay buffer and 0.1 ml volumes of this were added to 2 ml binding assays. =0.45 nM and =0.016 μCi/binding assay
*In cortical membranes, [^3 H]dihydroergocryptine binds to both α1 and α2 receptor binding sites under the conditions of assay described here, approximately 80% of the binding is associated with α2 receptors.
(§1) (b) Membrane preparation--As for Test B
(c) Non-specific binding--As for Test B
(d) Displacing compounds--As for Test B
(e) Assay protocol--As for Test B with the exception that the binding assays were incubated at 25° C. for 45 minutes in the dark.

[2] = molecular target: rat cortical muscarinic receptor; assay: Test D: [3H]Quinuclidinyl benzylate displacement from rat cortical muscarinic receptor binding sites; settings: rat cortical membranes, [3H]quinuclidinyl benzylate 0.31 nM, 25° C., 60 minutes; read-out: Test D MUSC IC50
Experimental: Test D--[^3 H]Quinuclidinyl benzylate displacement from rat cortical muscarinic receptor binding sites
(a) Radioligand--DL-[3-^3 H]Quinuclidinyl benzylate (Amersham International, TRK 506, 12 Ci/mmol) was used as a 1 μCi/1 μl solution and this stock solution was diluted 1/13333 in assay buffer and 0.1 ml volumes of this were added to 2 ml binding assay =0.31 nM and =0.0075 μCi/binding assay
as §1
(c) Non-specific binding--Non-specific binding was accounted for by the inclusion of 100 μM oxotremorine sesquifumarate in blank binding assays and this required a stock solution of 2 mM in distilled H2 O.
(d) Displacement compounds--As for Test B
(e) Assay protocol--As for Test B with the exception that the binding assays were incubated at 25° C. for 60 minutes.

Chain of rat striatal dopamine receptor (P61169 whole entry): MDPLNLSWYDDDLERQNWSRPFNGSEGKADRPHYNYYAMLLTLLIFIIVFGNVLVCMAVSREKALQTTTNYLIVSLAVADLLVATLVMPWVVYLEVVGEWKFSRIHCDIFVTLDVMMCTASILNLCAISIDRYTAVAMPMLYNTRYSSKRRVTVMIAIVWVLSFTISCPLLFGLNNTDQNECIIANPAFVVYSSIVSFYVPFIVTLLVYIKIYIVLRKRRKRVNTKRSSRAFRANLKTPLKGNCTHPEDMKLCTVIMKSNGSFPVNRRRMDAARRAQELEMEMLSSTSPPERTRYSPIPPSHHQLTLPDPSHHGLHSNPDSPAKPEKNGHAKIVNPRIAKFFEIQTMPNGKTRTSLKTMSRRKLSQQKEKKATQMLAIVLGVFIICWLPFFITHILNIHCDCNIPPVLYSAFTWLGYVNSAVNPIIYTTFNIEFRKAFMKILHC

Row | SMILES | pIC50 [1] | pIC50 (rat cortical α1 receptor) | pIC50 (rat cortical α2 receptor) | pIC50 [2] | share of the radioligand binding associated with α2 receptors (rat cortical α2 receptor; cortical membranes, under the conditions of assay)
1 | O=c1c2c(sc3ccc4ccccc4c13)CCNC2 [Example 5, 1,2,3,4-tetrahydro-12H-naphtho[1',2':5,6]thiopyrano[3,2-c]pyridin-12-one hydrochloride] | 5.28 | 5.77 | 5.80 | 4.71 | –
2 | CC(C)CN1CCc2sc3ccccc3c(=O)c2C1 [Example 19, 1,2,3,4-tetrahydro-2-isobutyl-10H-(1)-benzothiopyrano[3,2-c]pyridin-10-one hydrochloride] | 7.00 | 5.34 | 6.82 | < 4.00 | –
3 | O=c1c2c(sc3ccccc13)CCN(CC1CC1)C2 [Example 25, 2-cyclopropylmethyl-1,2,3,4-tetrahydro-10H-(1)-benzothiopyrano[3,2-c]pyridin-10-one] | 6.66 | 5.91 | 7.22 | 4.37 | –
4 | O=c1c2c(sc3ccc(Cl)cc13)CCNC2 [Example 7, 8-chloro-1,2,3,4-tetrahydro-10H-(1)-benzothiopyrano[3,2-c]pyridin-10-one hydrochloride] | 5.29 | < 5.00 | 5.66 | 4.07 | –
5 | CN1CCc2sc3ccccc3c(=O)c2C1 [Example 12, 1,2,3,4-tetrahydro-2-methyl-10H-(1)-benzothiopyrano[3,2-c]pyridin-10-one hydrochloride] | 5.55 | 5.51 | 6.03 | 4.49 | –
6 | O=c1c2c(sc3ccccc13)CCN(CC1=CCCCC1)C2 [Example 29] | 6.77 | 5.58 | 6.82 | < 4.00 | –
7 | O=c1c2c(sc3c1ccc1ccccc13)CCNC2 [Example 8, 1,2,3,4-tetrahydro-12H-naphtho[1',2':6,5]thiopyrano[3,2-c]pyridin-12-one hydrochloride] | 6.17 | 6.13 | 6.00 | 5.09 | –
8 | CCCCN1CCc2sc3ccccc3c(=O)c2C1 [Example 14, 2-n-butyl-1,2,3,4-tetrahydro-10H-(1)-benzothiopyrano[3,2-c]pyridin-10-one hydrochloride] | 7.10 | 6.05 | 6.96 | 4.12 | –
9 | CCCN1CCc2sc3ccccc3c(=O)c2C1 [Example 11, 1,2,3,4-tetrahydro-2-n-propyl-10H-(1)-benzothiopyrano[3,2-c]pyridin-10-one hydrochloride] | 6.31 | 5.89 | 6.82 | < 4.00 | –
10 | O=c1c2c(sc3ccccc13)CCN(CCC1OCCCO1)C2 [Example 31] | 6.25 | 5.47 | 6.19 | 4.13 | –
11 | O=c1c2c(sc3ccccc13)CCN(CCc1ccccc1)C2 [Example 32] | 6.64 | 6.77 | 6.68 | 4.33 | –
12 | O=c1c2c(sc3ccc(F)cc13)CCN(CC1CCCCC1)C2 [Example 24, 2-cyclohexylmethyl-8-fluoro-1,2,3,4-tetrahydro-10H-(1)-benzothiopyrano[3,2-c]pyridin-10-one hydrochloride] | 7.40 | < 5.00 | < 5.00 | < 4.00 | –
13 | COc1ccc2sc3c(c(=O)c2c1)CN(CC1CCCCC1)CC3 [Example 38, 2-cyclohexylmethyl-8-methoxy-1,2,3,4-tetrahydro-10H-(1)-benzothiopyrano[3,2-c]pyridin-10-one hydrochloride] | 6.12 | < 5.00 | 5.66 | 4.04 | –
14 | CC(C)CCN1CCc2sc3ccccc3c(=O)c2C1 [Example 15, 1,2,3,4-tetrahydro-2-isopentyl-10H-(1)-benzothiopyrano[3,2-c]pyridin-10-onehydrochloride] | 7.22 | 6.17 | 6.77 | 4.06 | –
15 | CCCCCCN1CCc2sc3ccccc3c(=O)c2C1 [Example 18, 2-n-hexyl-1,2,3,4-tetrahydro-10H-(1)-benzothiopyrano[3,2-c]pyridin-10-one hydrochloride] | 6.89 | 6.40 | 7.10 | 4.80 | –
16 | NC(=O)CCN1CCc2sc3ccccc3c(=O)c2C1 [Example 23, 2-(2-carbamoylethyl)-1,2,3,4-tetrahydro-10H-(1)-benzothiopyrano[3,2-c]pyridin-10-one hydrochloride] | 5.38 | 5.23 | 5.52 | < 4.00 | –
17 | Cc1ccc2sc3c(c(=O)c2c1)CNCC3 [Example 2, 1,2,3,4-tetrahydro-8-methyl-10H-(1)benzothiopyrano[3,2-c]pyridin-10-one hydrochloride] | < 5.00 | < 5.00 | 5.48 | 4.34 | –
18 | CCOC(=O)CCN1CCc2sc3ccccc3c(=O)c2C1 [Example 21, 2-(2-ethoxycarbonylethyl)-1,2,3,4-tetrahydro-10H-(1)-benzothiopyrano[3,2-c]pyridin-10-one hydrochloride] | 6.11 | 5.15 | 6.00 | 4.00 | –
19 | C=CCN1CCc2sc3ccccc3c(=O)c2C1 [Example 34] | 5.55 | 5.40 | 6.41 | 4.43 | –
20 | O=c1c2c(sc3ccccc13)CCN(C1CCCCC1)C2 [Example 37] | 6.80 | 5.80 | 6.22 | 4.93 | –
21 | [3H]C1C(C(=O)NC2(C(C)C)OC3(O)C4CCCN4C(=O)C(CC(C)C)N3C2=O)CN(C)C2Cc3c[nH]c4cccc(c34)C12[3H] (stereo not drawn) [[^3 H]dihydroergocryptine, [9,10(n)-^3 H]9,10-Dihydroergocryptine, reference compound] | – | – | – | – | approximately 80%
